Results on one compound are retold here after US10201568B2, “Brain, spinal, and nerve injury treatment” (EUSTRALIS PHARMACEUTICALS LIMITED, priority 2000, dated 2019).

The subject of data set [1] is brain injured animals. In words: Barnes Circular Maze, cognitive outcome after brain injury. It counts as in vivo. The source says: (§1) A number of commercially synthesized substance P receptor antagonists are currently available from standard scientific chemical suppliers, as is apparent form Tables 1, 2, and 3. We chose to use the compound N-acetyl-L-tryptophan based on its low lipid solubility that limits its ability to naturally cross the blood brain barrier and the fact that it is relatively inexpensive.

Data set [2] concerns brain injured animals. In words: otarod test, motor outcome after brain injury. It is filed as in vivo.
Description: as §1

The subject of data set [3] is brain injured animals. In words: brain water accumulation (cerebral oedema) after injury. Conditions: at 24 hours after injury, compared to vehicle treated controls. It counts as in vivo. How it is done:
(§2) This was consistent with the observation that N-acetyl-L-tryptophan reduced brain penetration of Evans blue at 5 hours after injury: the time associated with maximum blood brain barrier permeability and reduced vasogenic oedema formation.

The test system of data set [4] is blood brain barrier permeability. The data set is described as follows: brain penetration of Evans blue after injury. It is filed as in vivo. Conditions: at 5 hours after injury (time of maximum blood brain barrier permeability). How it is done: as §2
The conditions of data set [5]: limits its ability to naturally cross the blood brain barrier; cited from earlier work.
Where [6] appears, read: intravenous 246 mg/kg (saline vehicle) at 30 minutes after brain injury, apparent at 24 hours, persisted for 14 day assessment period, vs vehicle.

Turning to `CC(=O)N[C@@H](Cc1c[nH]c2ccccc12)C(=O)O` [N-acetyl-L-tryptophan], the “cognitive outcome of brain injured animals” value in the data set with brain injured animals [1] (24.6 mg/kg) is reported as “significantly improved”. Besides, in the data set with brain injured animals [1] (setting [6]), the “cognitive outcome as assessed by the Barnes Circular Maze” value was “significant improvement”. The motor outcome in the data set with brain injured animals [2] (24.6 mg/kg) is listed as “less of a beneficial effect”. Further, in the data set with brain injured animals [2] (setting [6]), the “motor outcome as assessed by the otarod test” value is “significant improvement”. Further, in the data set on brain injured animals [3], the “brain water accumulation (i.e. cerebral oedema)” value was “significant reduction”. Moreover, in data set [4], the “brain penetration of Evans blue” value was “reduced”. The lipid solubility result in data set [5] is recorded as “low”.
